US20020099070A1, “Dihydronaphthyridine potassium channel openers” (priority 2000, published 2002)

System: primary cultured guinea-pig urinary bladder (GPB) cells
Assay: Membrane hyperpolarization (MHP) assay, DiBAC(4)3 / FLIPR
Type: cell-based
Conditions: for Emax / Maximal Response (% P1075): maximal steady-state hyperpolarization, normalized to 10 μM P1075 = 100%; for Emax: read-out: Maximal Response (% P1075); for EC50: membrane hyperpolarization in GPB cells
Experimental: Compounds were evaluated for potassium channel opening activity using primary cultured guinea-pig urinary bladder (GPB) cells.
For the preparation of urinary bladder smooth muscle cells, urinary bladders were removed from male guinea-pigs (Hartley, Charles River, Wilmington, Mass.) weighing 300-400 g and placed in ice-cold Ca^2+-free Krebs solution (Composition, mM: KCl, 2.7; KH2PO4, 1.5; NaCl, 75; Na2HPO4, 9.6; Na2HPO4.7H2O, 8; MgSO4, 2; glucose, 5; HEPES, 10; pH 7.4). Cells were isolated by enzymatic dissociation as previously described with minor modifications in Klockner, U. and Isenberg, G., Pflugers Arch. 1985, 405, 329-339, hereby incorporated by reference. The bladder was cut into small sections and incubated in 5 mL of the Kreb's solution containing 1 mg/mL collagenase (Sigma, St. Louis, Mo.) and 0.2 mg/mL pronase (Calbiochem, La Jolla, Calif.) with continuous stirring in a cell incubator for 30 minutes. The mixture was then centrifuged at 1300×g for 5 minutes, and the pellet resuspended in Dulbecco's PBS (GIBCO, Gaithersburg, Md.) and recentrifuged to remove residual enzyme. The cell pellet was resuspended in 5 mL growth media (composition: Dulbecco's modified Eagle's medium supplemented with 10% fetal bovine serum, 100 units/mL penicillin, 100 units/mL streptomycin and […] amphotericin B) and further dissociated by pipetting the suspension through a flame-polished Pasteur pipette and passing it through a polypropylene mesh membrane (Spectrum, Houston, Tex.). The cell density was adjusted to 100,000 cells/mL by resuspension in growth media. Cells were plated in clear-bottomed black 96-well plates (Packard) for membrane potential studies at a density of 20,000 cells/well and maintained in a cell incubator with 90% air: 10% CO2 until confluent. Cells were confirmed to be of smooth muscle type by cytoskeletal staining using a monoclonal mouse anti human-α-smooth muscle actin (Biomeda, Foster City, Calif.).
Functional activity at potassium channels was measured by evaluating changes in membrane potential using the bis-oxonol dye DiBAC(4)3 (Molecular Probes) in a 96-well cell-based kinetic assay system, Fluorescent Imaging Plate Reader (FLIPR) (K. S. Schroeder et al., J. Biomed. Screen., v. 1 pp. 75-81 (1996)), hereby incorporated by reference. DiBAC(4)3 is an anionic potentiometric probe which partitions between cells and extracellular solution in a membrane potential-dependent manner. With increasing membrane potential (for example, K^+ depolarization), the probe fuither partitions into the cell; this is measured as an increase in fluorescence due to dye interaction with intracellular lipids and proteins. Conversely, decreasing membrane potential (hyperpolarization by potassium channel openers) evokes a decrease in fluorescence.
Confluent guinea-pig urinary bladder cells cultured in black clear-bottomed 96-well plates were rinsed twice with […] assay buffer (composition, mM: HEPES, 20; NaCl, 120; KCl, 2; CaCl2, 2; MgCl2, 1; glucose, 5; pH 7.4 at 25° C.) containing 5 μM DiBAC(4)3 and incubated with […] of the buffer in a cell incubator for 30 minutes at 37° C. to ensure dye distribution across the membrane. After recording the baseline fluorescence for 5 minutes, the reference or test compounds, prepared at 10 times the concentration in the assay buffer, were added directly to the wells. Changes in fluorescence were monitored for an additional 25 minutes. Hyperpolarization responses were corrected for any background noise and were normalized to the response observed with 10 μM of the reference compound P1075, N″-cyano-N-(tert-pentyl)-N′-(3-pyridinyl)guanidine, which was assigned as 100%. P1075 is a potent opener of smooth muscle KATP channels (Quast et al., Mol. Pharmacol., v. 43 pp. 474-481 (1993)) and was prepared using the procedures described in (Manley, J. Med. Chem. (1992) 35, 2327-2340), hereby incorporated by reference. […]

Structure (SMILES)	EC50 (Cavia porcellus) [nM]	EC50 [nM]	Emax (Cavia porcellus) [%]	Maximal Response (% P1075)
CC(=O)C1=C(C)Nc2cc[nH]c(=O)c2C1c1ccc(F)c(Br)c1 (racemic) [Example 18, 3-acetyl-4-(3-bromo-4-fluorophenyl)-2-methyl-4,6-dihydro[1,6]naphthyridin-5(1H)-one]	740	–	83	–
CC1=C(C#N)C(c2ccc(F)c(Br)c2)C2=C(CCNC2=O)N1 (stereo not drawn) [Example 3, 4-(3-bromo-4-fluorophenyl)-3-cyano-2-methyl-4 6,7,8-tetrahydro[1,6]naphthyridin-5(1H)-one]	–	2500	–	78
CC1=C(C#N)C(c2ccc(Cl)c(Cl)c2)C2=C(CCNC2=O)N1 (stereo not drawn) [Example 8, 4-(3,4-dichlorophenyl)-3-cyano-2-methyl-4,6,7,8-tetahydro[1,6]naphthyridin-5(1H)-one]	–	38	–	97
CC1=C(C#N)C(c2ccc(F)c(F)c2)C2=C(CCNC2=O)N1 (stereo not drawn) [Example 12, 4-(3,4-difluorophenyl)-3-cyano-2-methyl-4,6,7,8-tetrahydro[1,6]naphthyridin-5(1H)-one]	890	–	89	–
CC1=C(C#N)C(c2cc(F)c(F)cc2F)C2=C(CCNC2=O)N1 (stereo not drawn) [Example 14, 4-(2,4,5-trifluorophenyl)-3-cyano-2-methyl-4,6,7,8-tetrahydro[1,6]naphthyridin-5(1H)-one]	2600	–	84	–
CC(=O)C1=C(C)NC2=C(C(=O)NCC2)C1c1ccc(F)c(Br)c1 (stereo not drawn) [Example 17, 3-acetyl-4-(3-bromo-4-fluorophenyl)-2-methyl-4,6,7,8-tetrahydro[1,6]naphthyridin-5(1H)-one]	14000	–	45	–
CC(=O)C1=C(C)Nc2cc[nH]c(=O)c2C1c1ccc(F)c(Br)c1 (stereo not drawn) [Example 19, 3-acetyl-4-(3-bromo-4-fluorophenyl)-2-methyl-4,6-dihydro[1,6]naphthyridin-5(1H)-one]	620	–	104	–
O=C1NCCC2=C1C(c1ccc(F)c(Br)c1)C(C(=O)c1ccccc1)=C(c1ccccc1)N2 (stereo not drawn) [Example 20, 3-benzoyl-4-(3-bromo-4-fluorophenyl)-2-phenyl-4,6,7,8-tetrahydro[1,6]naphthyridin-5(1H)-one]	18000	–	51	–
COC(=O)C1=C(C)NC2=C(C(=O)OCC2)C1c1ccc(F)c(C(F)(F)F)c1 (stereo not drawn) [Example 30, 4-[4-fluoro-3-(trifluoromethyl)phenyl]-3-methoxycarbonyl-2-methyl-1,4,7,8-tetrahydro-5H-pyrano[4,3-b]pyridin-5-one]	4000	–	52	–

The next lines start with results.

EC50 (Cavia porcellus) [nM]	EC50 [nM]	Structure (SMILES)	Emax (Cavia porcellus) [%]	Maximal Response (% P1075)
52	–	CC1=C(C#N)C(c2ccc(F)c(Br)c2)C2=C(CCNC2=O)N1 (racemic) [Example 1, 4-(3-bromo-4-fluorophenyl)-3-cyano-2-methyl-4,6,7,8-tetrahydro[1,6]naphthyridin-5(1H)-one]	83	–
13	–	CC1=C(C#N)C(c2ccc(F)c(Br)c2)c2c(cc[nH]c2=O)N1 (racemic) [Example 4, 4-(3-bromo-4-fluorophenyl)-3-cyano-2-methyl-4,6-dihydro[1,6]naphthyridin-5(1H)-one]	92	–
4	–	CC1=C(C#N)C(c2ccc(F)c(Br)c2)c2c(ccnc2Cl)N1 (racemic) [Example 32, 4-(3-bromo-4-fluorophenyl)-5-chloro-3-cyano-2-methyl-1,4-dihydro[1,6]naphthyridine]	91	–
620	–	CC1=C(C#N)C(c2cccc([N+](=O)[O-])c2)C2=C(CCNC2=O)N1 (stereo not drawn) [Example 9, 4-(3-nitrophenyl)-3-cyano-2-methyl-4,6,7,8-tetrahydro[1,6]naphthyridin-5(1H)-one]	106	–
140	–	CC1=C(C#N)C(c2ccc(Cl)c([N+](=O)[O-])c2)C2=C(CCNC2=O)N1 (stereo not drawn) [Example 10, 4-(4-chloro-3-nitrophenyl)-3-cyano-2-methyl-4,6,7,8-tetrahydro[1,6]naphthyridin-5(1H)-one]	110	–
23	–	CC1=C(C#N)C(c2ccc(Br)c(Br)c2)C2=C(CCNC2=O)N1 (stereo not drawn) [Example 11, 4-(3,4-dibromophenyl)-3-cyano-2-methyl-4,6,7,8-tetrahydro[1,6]naphthyridin-5(1H)-one]	105	–
350	–	CC1=C(C#N)C(c2ccc(F)c(C(F)(F)F)c2)C2=C(CCNC2=O)N1 (stereo not drawn) [Example 13, 4-[4-fluoro-3-(trifluoromethyl)phenyl]-3-cyano-2-methyl-4,6,7,8-tetrahydro[1,6]naphthyridin-5(1H)-one]	99	–
110	–	CC1=C(C#N)C(c2ccc(F)c(Cl)c2)C2=C(CCNC2=O)N1 (stereo not drawn) [Example 15, 4-(3-chloro-4-fluorophenyl)-3-cyano-2-methyl-4,6,7,8-tetrahydro[1,6]naphthyridin-5(1H)-one]	102	–
180	–	CC1=C(C#N)C(c2ccc(Cl)c(C(F)(F)F)c2)C2=C(CCNC2=O)N1 (stereo not drawn) [Example 16, 4-[4-chloro-3-(trifluoromethyl)phenyl]-3-cyano-2-methyl-4,6,7,8-tetrahydro[1,6]naphthyridin-5(1H)-one]	109	–
22	–	CC1=C(C#N)C(c2ccc(F)c(Br)c2)C2=C(CCOC2=O)N1 (stereo not drawn) [Example 28, 4-(3-bromo-4-fluorophenyl)-3-cyano-2-methyl-1,4,7,8-tetrahydro-5H-pyrano[4,3-b]pyridin-5-one]	82	–
19	–	COC(=O)C1=C(C)NC2=C(C(=O)OCC2)C1c1ccc(F)c(Br)c1 (stereo not drawn) [Example 29, 4-(3-bromo-4-fluorophenyl)-3-methoxycarbonyl-2-methyl-1,4,7,8-tetrahydro-5H-pyrano[4,3-b]pyridin-5-one]	81	–
39	–	COC(=O)C1=C(C)Nc2ccnc(Cl)c2C1c1ccc(F)c(Br)c1 (stereo not drawn) [Example 31, 4-(3-bromo-4-fluorophenyl)-5-chloro-3-(methoxycarbonyl)-2-methyl-1,4-dihydro[1,6]naphthyridine]	93	–
